Assay results: US9982026B2, “Compositions and methods for assessing and treating adrenal diseases and disorders” (YALE UNIVERSITY, priority 2011, dated 2018)
Substitutions are numbered along the chain they refer to. Entries after “also recorded” stand apart in the source; their conditions may differ.

Assays:
[1] = target: T1, KCNJ3/KCNJ5G151R in 293T cells (Homo sapiens, UniProt P48544+P48549, G151R); experiment: Whole-cell patch clamp of KCNJ3/KCNJ5 heterotetramers, Ba2+ block; format: cell-based; conditions: 1 mM BaCl2 in extracellular solution
T1 construct: #SC118769 (KCNJ3); host or cells: 293T
T1 sequence (P48544 1-419 G151R): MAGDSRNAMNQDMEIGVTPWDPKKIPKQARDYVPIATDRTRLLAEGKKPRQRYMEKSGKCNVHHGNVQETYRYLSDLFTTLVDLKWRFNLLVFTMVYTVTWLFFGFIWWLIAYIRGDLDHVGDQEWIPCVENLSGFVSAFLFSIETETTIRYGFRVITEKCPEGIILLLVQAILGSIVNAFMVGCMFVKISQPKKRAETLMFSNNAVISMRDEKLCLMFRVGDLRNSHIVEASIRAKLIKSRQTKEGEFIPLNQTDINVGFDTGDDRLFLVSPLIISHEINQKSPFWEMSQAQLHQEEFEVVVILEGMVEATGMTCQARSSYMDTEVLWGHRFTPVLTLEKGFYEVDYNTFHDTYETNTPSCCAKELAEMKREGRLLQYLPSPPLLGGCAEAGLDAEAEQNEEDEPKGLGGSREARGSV
T1 sequence (P48549 1-501): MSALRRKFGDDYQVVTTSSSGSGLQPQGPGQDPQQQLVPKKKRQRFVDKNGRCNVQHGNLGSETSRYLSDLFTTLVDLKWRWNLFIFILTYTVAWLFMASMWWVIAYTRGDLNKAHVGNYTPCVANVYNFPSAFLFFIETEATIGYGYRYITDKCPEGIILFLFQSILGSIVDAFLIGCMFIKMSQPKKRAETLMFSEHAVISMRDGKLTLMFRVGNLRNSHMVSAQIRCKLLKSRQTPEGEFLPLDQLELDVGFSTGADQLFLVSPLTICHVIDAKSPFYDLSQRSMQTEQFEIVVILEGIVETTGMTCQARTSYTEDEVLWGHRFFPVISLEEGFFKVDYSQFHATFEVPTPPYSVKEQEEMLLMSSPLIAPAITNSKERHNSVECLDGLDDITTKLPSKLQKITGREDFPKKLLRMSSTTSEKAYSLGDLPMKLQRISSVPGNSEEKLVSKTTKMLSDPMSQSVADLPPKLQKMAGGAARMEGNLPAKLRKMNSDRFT
Experimental: (§1) FIG. 3A depicts the results of representative whole-cell recordings of 293T cells transfected with empty vector or KCNJ3 plus WT or mutant KCNJ5. […] Middle row: 1 mM BaCl2 was added. Bottom row: 140 mM choline chloride was substituted for extracellular NaCl. FIG. 3B depicts the current-voltage relationships from cells expressing indicated constructs (n=3 to 7 for each construct). Reversal potentials in control conditions are indicated. […] FIG. 3C depicts that the K+:Na+ permeability ratios calculated from the reversal potentials show loss of ion selectivity of the mutant channels. Data in FIGS. 3B and 3C are shown as mean±SEM.
(§2) Empty vector was used as a control. Cells were examined one day after transient transfection.
(§3) 1 mM BaCl2 was used to block Kir channels. […] All data are shown as mean±SEM.

[2] = target: T2, KCNJ3/KCNJ5WT in 293T cells (Homo sapiens, UniProt P48544+P48549); experiment: as above; format: cell-based; conditions: 1 mM BaCl2 in extracellular solution; listed as Ba2+
T2 construct: #SC118769 (KCNJ3); host or cells: 293T
T2 sequence (P48544 1-419): T1 sequence (P48544 1-419 G151R) with R151G
T2 sequence (P48549 1-501): T1 sequence (P48549 1-501)
Experimental: as §1, §2, §3

[3] = target: T3, KCNJ5 WT homotetramers in 293T cells (Homo sapiens, UniProt P48544); experiment: Whole-cell patch clamp of KCNJ5 homotetramers, Ba2+ block; format: cell-based; conditions: 1 mM BaCl2 in extracellular fluid, symmetric high K+ solutions
T3 construct: host or cells: 293T
T3 sequence (P48544 1-419): T1 sequence (P48544 1-419 G151R) with R151G
Experimental: Because of low current amplitude of homotetrameric channels, currents were measured under symmetrical high Na+ or high K+ conditions, which increases current amplitude (Owen et al., 1999, Exp Physiol 84:471-488; Andreoli, et al., Eds., Molecular Biology of Membrane Transport Disorders (Plenum Press, New York, ed. 2, 1996), chap. 5) (FIGS. 13A-13D); reversal potentials and permeability ratios were determined using physiological solutions (FIGS. 13E, 13F). (FIG. 13A) Representative whole-cell recordings showing K+ and Na+ currents in 293T cells transfected with KCNJ5, KCNJ5G151R, KCNJ5L168R, and KCNJ5T158A. […] (FIGS. 13B, 13C) Current-voltage relationships from cells expressing the indicated constructs with symmetric high K+ or high Na+ solutions as in FIG. 13A. […] Relative permeabilities of K+:Na+ were determined in physiologic solutions as described in FIG. 13E. (FIG. 13E) Reversal potential of 293T cells transfected with WT or mutant KCNJ5 using physiological solutions. […] The reversal potential for the homotetramers was determined by a ramp protocol ranging from −100 to +100 mV after forming a high resistance seal. […]
To analyze homomeric wild-type or mutant KCNJ5 currents, 1 μg of cDNA was transfected. […] For each construct, currents were measured in two conditions. […] The reversal potential was determined using a ramp protocol ranging from −100 to +100 mV after forming a high resistance seal. […]

[4] = tested on: KCNJ3 plus mutant KCNJ5 in 293T cells; experiment: Whole-cell patch clamp of KCNJ3/KCNJ5 heterotetramers, Ba2+ block; format: cell-based, human; conditions: 1 mM BaCl2 in extracellular solution; mutant channels G151R, L168R, T158A
Experimental: as §1, §2, §3

[5] = target: KCNJ3/KCNJ5WT cotransfected with the dopamine D2 receptor in 293T cells (Homo sapiens, UniProt P14416); conditions: 1 μM dopamine, current amplitudes at −100 mV, before vs after addition, n=4
Sequence of KCNJ3/KCNJ5WT cotransfected with the dopamine D2 receptor in 293T cells (P14416 whole entry): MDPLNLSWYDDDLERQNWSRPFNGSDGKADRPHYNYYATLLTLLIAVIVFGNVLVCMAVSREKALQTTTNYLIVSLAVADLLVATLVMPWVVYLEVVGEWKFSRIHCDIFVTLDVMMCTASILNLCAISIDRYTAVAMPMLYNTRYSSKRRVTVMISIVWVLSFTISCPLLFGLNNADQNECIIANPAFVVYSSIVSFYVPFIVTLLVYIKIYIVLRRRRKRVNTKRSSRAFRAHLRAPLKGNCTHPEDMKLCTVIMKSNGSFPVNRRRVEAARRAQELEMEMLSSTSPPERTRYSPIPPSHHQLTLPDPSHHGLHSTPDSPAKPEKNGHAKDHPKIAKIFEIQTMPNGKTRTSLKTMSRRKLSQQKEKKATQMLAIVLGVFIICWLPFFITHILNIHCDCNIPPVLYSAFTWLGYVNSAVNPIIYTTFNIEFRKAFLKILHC
Experimental: Representative whole-cell recordings of 293T cells cotransfected with KCNJ3/KCNJ5WT and the dopamine D2 receptor are shown. The pipette holding potential was 0 mV before clamping, and the cell was clamped from −100 to 60 mV with 20 mV increments before (left) and after (right) addition of 1 μM dopamine. The extracellular solution contained 140 mM NaCl, 5 mM KCl, 1.8 mM MgCl2, 1.8 mM CaCl2, and 10 mM HEPES, pH 7.4, while the intracellular solution contained 140 mM KCl, 4 mM MgCl2, 1 mM CaCl2, 1 mM EGTA, and 5 mM HEPES, pH 7.4. […] (FIG. 12B) Mean±SEM of current amplitudes measured at −100 mV before (control) and after addition of dopamine as in FIG. 12A (n=4).
293T cells were transfected with plasmid DNA using TransIT®-293 Transfection Reagent (Mirus) according to the manufacturer's instructions. Empty vector was used as a control. Cells were examined one day after transient transfection. Standard perforated whole-cell patch clamp recordings were performed on GFP-positive cells using an Axopatch 200A (Axon Instruments) amplifier. […]
Cells were cotransfected with 0.8 μg wild-type or mutant KCNJ5 and 0.5 μg KCNJ3 cDNA. […] Endogenous currents of 293T cells transfected with empty vector were measured from −100 to 60 mV. […] Data were analyzed by a combination of Axon Clampfit9.2 (Molecular Devices) and SigmaPlot (Jandel Scientific) programs. Data from 3-7 cells were analyzed for each construct. […]

increase of current [5] | SMILES | inhibition of current by Ba2+ [1] | inhibition of current by Ba2+ [2] | inhibition of channel activity [3] | inhibition of current by Ba2+ [4]
– | [Ba+2].[Cl-].[Cl-] [BaCl2] | loss of inhibition | inhibited; also recorded: inhibits the WT channel | inhibited WT channel activity | variable inhibition
~50% | Cl.NCCc1ccc(O)c(O)c1 [Dopamine, dopamine hydrochloride] | – | – | – | –
